Data: PubChem BioAssay AID2060888 (Molecular Pharmacology Branch, DTP, NCI, 2025)

System: 695427-040-R-J1-PDC complex spheroid viability
Assay: Anticancer human tumor 695427-040-R-J1-PDC patient-derived colon adenocarcinoma cell line growth inhibition [RAS]
Settings: for IC50: curve of first compound; for viability, T/C: stronger effect = lower value
Summary of the method: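 Agents were tested in combination matrices in half-log decrements from a top concentration at or near clinical Cmax (10 microM if undetermined). Targets were multi-cell spheroids of tumour lines plus HUVEC and MSC stromal cells.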

[1] = second compound 0.000949 µM, first compound 0.0316 µM
[2] = second compound 0.000949 µM, first compound 0.1 µM
[3] = second compound 0.000949 µM, first compound 0.316 µM
[4] = second compound 0.000949 µM, first compound 1 µM
[5] = second compound 0.003 µM, first compound 0.0316 µM
[6] = second compound 0.003 µM, first compound 0.1 µM
[7] = second compound 0.003 µM, first compound 0.316 µM
[8] = second compound 0.003 µM, first compound 1 µM
[9] = second compound 0.00949 µM, first compound 0.0316 µM
[10] = second compound 0.00949 µM, first compound 0.1 µM
[11] = second compound 0.00949 µM, first compound 0.316 µM
[12] = second compound 0.00949 µM, first compound 1 µM
[13] = second compound 0.03 µM, first compound 0.0316 µM
[14] = second compound 0.03 µM, first compound 0.1 µM
[15] = second compound 0.03 µM, first compound 0.316 µM
[16] = second compound 0.03 µM, first compound 1 µM
[17] = second compound 0.0949 µM, first compound 0.0316 µM
[18] = second compound 0.0949 µM, first compound 0.1 µM
[19] = second compound 0.0949 µM, first compound 0.316 µM
[20] = second compound 0.0949 µM, first compound 1 µM
[21] = second compound 0.3 µM, first compound 0.0316 µM
[22] = second compound 0.3 µM, first compound 0.1 µM
[23] = second compound 0.3 µM, first compound 0.316 µM
[24] = second compound 0.3 µM, first compound 1 µM
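Further: viability read after seven days of drug exposure.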
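Wherever viability, T/C is given: 100% = DMSO vehicle control viability.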

For `CC(C)NCC(C(=O)N1CCN(c2ncnc3c2C(C)CC3O)CC1)c1ccc(Cl)cc1` (stereo unspecified) + C#Cc1c(F)ccc2cc(O)cc(-c3ncc4c(N5CC6CCC(C5)N6)nc(OCC56CCCN5CC(F)C6)nc4c3F)c12, the IC50 (second compound 0.0316 µM) was over 10 µM, the IC50 (second compound 0.1 µM) was over 10 µM and the IC50 (second compound 0.316 µM) was over 10 µM. The IC50 (second compound 1 µM) was over 10 µM, the IC50 (second compound 3.16 µM) was 0.773 µM and the IC50 (second compound 10 µM) was under 0.0316 µM. The viability, T/C (second compound 0.0316 µM, first compound 0.0316 µM) was 111%, the viability, T/C (second compound 0.0316 µM, first compound 0.1 µM) was 92.8% and the viability, T/C (second compound 0.0316 µM, first compound 0.316 µM) was 89.6%. The viability, T/C (second compound 0.0316 µM, first compound 1 µM) was 84%, the viability, T/C (second compound 0.0316 µM, first compound 3.16 µM) was 89.6% and the viability, T/C (second compound 0.0316 µM, first compound 10 µM) was 103%. For the same compound, the viability, T/C (second compound 0.1 µM, first compound 0.0316 µM) was 92.6%, the viability, T/C (second compound 0.1 µM, first compound 0.1 µM) was 78.7% and the viability, T/C (second compound 0.1 µM, first compound 0.316 µM) was 83.7%. For the same compound, the viability, T/C (second compound 0.1 µM, first compound 1 µM) was 71%, the viability, T/C (second compound 0.1 µM, first compound 3.16 µM) was 94.8% and the viability, T/C (second compound 0.1 µM, first compound 10 µM) was 92.3%. For the same compound, the viability, T/C (second compound 0.316 µM, first compound 0.0316 µM) was 83.7%, the viability, T/C (second compound 0.316 µM, first compound 0.1 µM) was 85.8% and the viability, T/C (second compound 0.316 µM, first compound 0.316 µM) was 82.7%. The viability, T/C (second compound 0.316 µM, first compound 1 µM) was 73.3%, the viability, T/C (second compound 0.316 µM, first compound 3.16 µM) was 76.6% and the viability, T/C (second compound 0.316 µM, first compound 10 µM) was 82.2%. The viability, T/C (second compound 1 µM, first compound 0.0316 µM) was 66.2%, the viability, T/C (second compound 1 µM, first compound 0.1 µM) was 60.2% and the viability, T/C (second compound 1 µM, first compound 0.316 µM) was 60.3%. The viability, T/C (second compound 1 µM, first compound 1 µM) was 60.9%, the viability, T/C (second compound 1 µM, first compound 3.16 µM) was 67.2% and the viability, T/C (second compound 1 µM, first compound 10 µM) was 60.3%. The viability, T/C (second compound 3.16 µM, first compound 0.0316 µM) was 59.6%, the viability, T/C (second compound 3.16 µM, first compound 0.1 µM) was 65.5% and the viability, T/C (second compound 3.16 µM, first compound 0.316 µM) was 48.7%. It also gave a viability, T/C (second compound 3.16 µM, first compound 1 µM) of 46.3%, a viability, T/C (second compound 3.16 µM, first compound 3.16 µM) of 48.5% and a viability, T/C (second compound 3.16 µM, first compound 10 µM) of 39.2%. It also gave a viability, T/C (second compound 10 µM, first compound 0.0316 µM) of 33.6%, a viability, T/C (second compound 10 µM, first compound 0.1 µM) of 44.1% and a viability, T/C (second compound 10 µM, first compound 0.316 µM) of 34.4%. The viability, T/C (second compound 10 µM, first compound 1 µM) was 32.3%, the viability, T/C (second compound 10 µM, first compound 3.16 µM) was 26.1% and the viability, T/C (second compound 10 µM, first compound 10 µM) was 18.7%.

`CCN1CCN(Cc2ccc(Nc3ncc(F)c(-c4cc(F)c5nc(C)n(C(C)C)c5c4)n3)nc2)CC1` + CCn1c(-c2cccnc2C(C)OC)c2c3cc(ccc31)N1CCOC(CC(NC(=O)C(C(C)C)N(C)C(=O)C3(F)CCN(C(=O)C#CC(C)(C)N(C)C)CC3)C(=O)N3CCCC(N3)C(=O)OCC(C)(C)C2)C1 gave an IC50 (second compound 0.000949 µM) of over 1 µM, an IC50 (second compound 0.003 µM) of over 1 µM and an IC50 (second compound 0.00949 µM) of over 1 µM. For the same compound, the IC50 (second compound 0.03 µM) was over 1 µM, the IC50 (second compound 0.0949 µM) was over 1 µM and the IC50 (second compound 0.3 µM) was over 1 µM. It also gave a viability, T/C (second compound 0.000949 µM, first compound 0.00316 µM) of 109%, a viability, T/C (second compound 0.000949 µM, first compound 0.01 µM) of 88.1% and a viability, T/C [1] of 84.9%. It also gave a viability, T/C [2] of 74.2%, a viability, T/C [3] of 99.1% and a viability, T/C [4] of 87.1%. The viability, T/C (second compound 0.003 µM, first compound 0.00316 µM) was 100%, the viability, T/C (second compound 0.003 µM, first compound 0.01 µM) was 86.3% and the viability, T/C [5] was 86.3%. For the same compound, the viability, T/C [6] was 82.3%, the viability, T/C [7] was 86.2% and the viability, T/C [8] was 93%. The viability, T/C (second compound 0.00949 µM, first compound 0.00316 µM) was 118%, the viability, T/C (second compound 0.00949 µM, first compound 0.01 µM) was 84.3% and the viability, T/C [9] was 87.1%. The viability, T/C [10] was 88.9%, the viability, T/C [11] was 91.2% and the viability, T/C [12] was 53.9%. It also gave a viability, T/C (second compound 0.03 µM, first compound 0.00316 µM) of 96.6%, a viability, T/C (second compound 0.03 µM, first compound 0.01 µM) of 88.1% and a viability, T/C [13] of 74.4%. It also gave a viability, T/C [14] of 84.4%, a viability, T/C [15] of 107% and a viability, T/C [16] of 90.7%. The viability, T/C (second compound 0.0949 µM, first compound 0.00316 µM) was 99.2%, the viability, T/C (second compound 0.0949 µM, first compound 0.01 µM) was 79% and the viability, T/C [17] was 91.8%. The viability, T/C [18] was 87.3%, the viability, T/C [19] was 60.6% and the viability, T/C [20] was 76.6%. It also gave a viability, T/C (second compound 0.3 µM, first compound 0.00316 µM) of 87.8%, a viability, T/C (second compound 0.3 µM, first compound 0.01 µM) of 83.2% and a viability, T/C [21] of 84.9%. It also gave a viability, T/C [22] of 79%, a viability, T/C [23] of 65.9% and a viability, T/C [24] of 60.6%.

Compound `C[C@@H](NC(=O)c1ncnc(N)c1Cl)c1ncc(C(=O)Nc2cc(C(F)(F)F)c(Cl)cn2)s1` + CCn1c(-c2cccnc2C(C)OC)c2c3cc(ccc31)N1CCOC(CC(NC(=O)C(C(C)C)N(C)C(=O)C3(F)CCN(C(=O)C#CC(C)(C)N(C)C)CC3)C(=O)N3CCCC(N3)C(=O)OCC(C)(C)C2)C1 has an IC50 (second compound 0.000949 µM) of over 10 µM, an IC50 (second compound 0.003 µM) of over 10 µM and an IC50 (second compound 0.00949 µM) of over 10 µM. It also gave an IC50 (second compound 0.03 µM) of over 10 µM, an IC50 (second compound 0.0949 µM) of over 10 µM and an IC50 (second compound 0.3 µM) of over 10 µM. The viability, T/C [1] was 86.3%, the viability, T/C [2] was 99.1% and the viability, T/C [3] was 92.7%. The viability, T/C [4] was 106%, the viability, T/C (second compound 0.000949 µM, first compound 3.16 µM) was 96.8% and the viability, T/C (second compound 0.000949 µM, first compound 10 µM) was 85.7%. It also gave a viability, T/C [5] of 82.2%, a viability, T/C [6] of 93.6% and a viability, T/C [7] of 113%. It also gave a viability, T/C [8] of 98.3%, a viability, T/C (second compound 0.003 µM, first compound 3.16 µM) of 99.2% and a viability, T/C (second compound 0.003 µM, first compound 10 µM) of 68.5%. The viability, T/C [9] was 96.3%, the viability, T/C [10] was 81.6% and the viability, T/C [11] was 105%. The viability, T/C [12] was 80.2%, the viability, T/C (second compound 0.00949 µM, first compound 3.16 µM) was 102% and the viability, T/C (second compound 0.00949 µM, first compound 10 µM) was 78.1%. The viability, T/C [13] was 81%, the viability, T/C [14] was 99% and the viability, T/C [15] was 115%. The viability, T/C [16] was 97.5%, the viability, T/C (second compound 0.03 µM, first compound 3.16 µM) was 104% and the viability, T/C (second compound 0.03 µM, first compound 10 µM) was 82.4%. It also gave a viability, T/C [17] of 67.9%, a viability, T/C [18] of 97.3% and a viability, T/C [19] of 96.6%. For the same compound, the viability, T/C [20] was 104%, the viability, T/C (second compound 0.0949 µM, first compound 3.16 µM) was 89.8% and the viability, T/C (second compound 0.0949 µM, first compound 10 µM) was 67.1%. For the same compound, the viability, T/C [21] was 78.8%, the viability, T/C [22] was 94.4% and the viability, T/C [23] was 94.7%. For the same compound, the viability, T/C [24] was 98%, the viability, T/C (second compound 0.3 µM, first compound 3.16 µM) was 97.8% and the viability, T/C (second compound 0.3 µM, first compound 10 µM) was 67.9%.
